Three compounds from patent EP1658846B1, “N-(8,8,8-trifluorooctyl)-1,5-dideoxy-1,5-imino-D-glucitol for treating hepatitis virus infections” (priority 1999, dated 2000) can be followed below.

Series [1] has as its system Hepatitis B Virus. In words: HBV secretion from chronically HBV secreting HepG2.2.15 cells (preS1 immunoprecipitation of virions, PCR). In kind it is cell-based. Particulars: for Relative amount of HBV secreted as a % of Control: 3 days, control = 100. The procedure:
(§1) The anti-hepatitis B virus activity and effect on cell viability of a number of different N-substituted-1,5-dideoxy-1,5-imino-D-glucitol compounds were assessed using an in vitro assay employing chronically hepatitis B virus secreting HepG2.2.15 cells. The method employed was essentially that described in Block et al. (1994) Proc. Natl. Acad. Sci. USA 91:2235-2239.

Series [2] deals with HepG2.2.15 cells. The experiment in a line: Cell viability by trypan blue exclusion. In kind it is cell-based. Particulars: 3 days, cells excluding trypan blue.
For series [3], the system named is HepG 2.2.15 (2.2.15) cells. In words: IC-90 values used for the combostat dilutions (unpublished observation / literature). In kind it is cell-based. Particulars: Hepatitis B virus, HepG2.2.15, T. Block and G. Jacob. How it is done: The anti-hepatitis B virus effect of […] (3TC) alone and in combination with N-nonyl-DNJ was determined according to Korba ((1996) Antiviral Research 29(1):49-51), using the "combostat" strategy (Comstat Program, Combostat Corp., Duluth, MN). The combostat method involves serially diluting the IC-90 of each compound. The IC-90 of N-nonyl-DNJ has been determined to be between 4 and 10 µg/ml (T. Block and G. Jacob, unpublished observation). The accepted IC-90 for 3TC in HepG 2.2.15 (2.2.15) cells is 300nM to 500nM (Doong et al. (1991) Proc. Natl. Acad. Sci. USA 88:8495-8499).

In series [4] the test system is HBV DNA. The experiment in a line: Cell culture experiments with N-nonyl-DNJ: total HBV DNA and immune precipitated DNA. In kind it is cell-based. From the text: (§2) There are two measures of drug efficacy: reduction in total HBV DNA (measured by quantitative PCR), and reduction in HBV DNA from capsids with intact surface glycoproteins, which is the active form of the virus (measured by an ELISA-like immune precipitation assay followed by quantitative PCR).

Series [5] has as its system woodchuck hepatitis virus (WHV). The experiment in a line: Monotherapy in woodchuck model, BID oral dosing for 4 weeks. In kind it is in vivo. The procedure:
Therefore, five groups of four animals each (all groups had both sexes, all but the control had two of each sex) were assigned to 0, 12.5, 25, 50, and 100 mg/kg/day with BID oral dosing. These were lab-reared wild animals. All animals were infected with woodchuck hepatitis virus (WHV) as neonates, and had been tested positive on serological tests for WHV surface antigen. Blood samples were drawn one week prior to dosing (-1 week), immediately before dosing (0 weeks), weekly during dosing (1, 2, 3, and 4 weeks), and after the end of dosing (5, 6, 8, and 10 weeks).
as §2
Before models are fitted to the data, a log transform was applied because: 1) the variation in IPDNA increases with increasing IPDNA values; the log transformation gives values with a nearly constant variation, and 2) it is expected that drug effects will appear as a constant multiplier of the IPDNA level. Because there are zero values of IPDNA, a small value (about 1/2 of the smallest non-zero value) was added to all values before the log transform.
Two approaches were used to model the changes in slope to week with dose of N-nonyl-DNJ: a linear modeling approach and a nonlinear model. Both approaches assume that the (linear) rate of change of the Log(IPDNA) measure over the dosing period is the "right" measure to reflect the effect of the drug on the virus. Both approaches are fit in stages, and the first stage is common to both approaches. First, a simple straight line regression model is fit using weeks 0-4 to predict log(IPDNA_+_10) separately for each animal by run combination. In the second stage, the response variable is the slope fitted in the first stage.
For the linear approach, a model is fit with slope to week as the response where run is considered a block, dose has a significant effect (almost all of this effect is due to a slope to dose), and the relevant error for testing the effect of dose is the variation among animals treated alike (after the adjustment for the runs as blocks). This is similar to using the calibration data within each run to first adjust each run's data to a common virus DNA concentration; the difference is that here the data from the woodchucks are used for the run adjustment rather than only the calibration data.
For the nonlinear approach, a four parameter logistic model is fit with the slope to week as the response and the dose as the predictor. […]

Series [6] is described as follows: Cell viability by trypan blue exclusion. It is filed as cell-based. To be noted: human, hepg2.2.15 cells, 3 days, cells excluding trypan blue, read-out: % Viable +/-1 S.D.
The nature of series [7]: MTT-based colorimetric cell viability assay. Particulars: human, hepg2.2.15 cells; read-out: [] for a 50% reduction in MMT. The procedure: as §1
• 1: N-(n-nonyl)-1,5-dideoxy-1,5-imino-D-glucitol • 2: N-(n-butyl)-1,5-dideoxy-1,5-imino-D-glucitol, diacetate • 3: 1,5-dideoxy-1,5-imino-D-glucitol, tetracetate • 4: N,O-(1,6-carbonyl)-1,5-dideoxy-1,5-imino-D-glucitol • 5: N-(n-butyl)-2,3-dimethoxy-1,5-dideoxy-1,5-imino-D-glucitol • 6: N-(n-hexyl)-4,6-benzylidine-1,5-dideoxy-1,5-imino-D-glucitol • 7: N-(n-butyl)-3-methoxy-1,5-dideoxy-1,5-imino-D-glucitol • 8: N-(4,4,4-triflourobutyl)-2,3-dimethoxy-1,5-dideoxy-1,5-imino-D-glucitol, tetracetate • 9: N,O-(1,6-methylenecarbonyl)-1,5-dideoxy-1,5-irriino-D-glucitol • 10: N-(8,8,8-triflourooctyl)-1,5-dideoxy-1,5-imino-D-glucitol MMT: 3-(4,5-dimethylthiazol-2-yl)-2,5-diphenyltetrazolium bromide. The MTT-based colorimetric assay is a measurement of cell viability (Heo et al. (1990) Cancer Research 50:3681-3690).

[8] abbreviates: concentration [200] (unit not given).
The mark [9] stands for this setting: concentration [1000] (unit not given).

≈ marks a conversion by molar mass, not a printed value. Where two headings read alike, the source gives them in different places.

As for “1,5-(butylimino)-1,5-dideoxy-D-glucitol, tetraacetate [Example 2]”, the “Relative amount of HBV secreted as a % of Control” value is 107.0 +/-12 (n=3) % in series [1] (setting [8]) and 38.0 +/-15 (n=3) % in series [1] (setting [9]). Besides, the “[ ] for 90% HBV secretion inhibition” value in series [1] (duplicate PCR results, * lowest concentration tested, ** no inhibition at the highest concentration used (200 microgs/ml)) is recorded as >200*s* microgs per ml. In addition, the “% Viable +/-1 S.D.” value is 90 +/-6 (n=4) % in series [2] (setting [8]) and 89 +/-4 (n=4) % in series [2] (setting [9]).

On to `CCCCCCCCCN1C[C@H](O)[C@@H](O)[C@H](O)[C@H]1CO` [Compound 1 (Table 3), N-(n-nonyl)-1,5-dideoxy-1,5-imino-D-glucitol], for which the IC90 in series [3] lay in the range of 4 to 10 µg/mL. In addition, in series [4], the “effect on immune precipitated DNA (IPDNA)” value is “marked effect” and the “effect on total HBV DNA” value is listed as “little or no effect”. The “decrease of IPDNA at the minimum slope” value in series [5] (corresponds to the average minimum slope) is reported as “about 25 %/week”. Also, in series [5] (printed as 'fewer' (a decrease), weeks 0-4), the “average minimum slope observed” value is 0.31 Log(IPDNA g/mL)/week. Further, the “effect on total HBV DNA measurements” value in series [5] (quantitative PCR, all dose levels, pre-dose and dosed portions of the study) is on record as “no effect”. Besides, in series [5] (weeks 0-4, immune precipitation followed by quantitative PCR), the “IPDNA levels over the dosing period” value was “high dose animals tended to have decreasing levels of IPDNA”.

For the compound `CCCCN1C[C@H](O)[C@@H](O)[C@H](O)[C@H]1CO` [NBDNJ, N-(n-butyl-)-1,5-dideoxy-1,5-imino-D-glucitol], the IC90 in series [1] (Hepatitis B virus, HepG2.2.15, duplicate PCR results, * lowest concentration tested, ** no inhibition at the highest concentration used (200 microgs/ml), read-out: [ ] for 90% HBV secretion inhibition) fell in the range of 0.5 to 1 µg/mL (≈ 2.28 to 4.56 µM). Besides, the “Relative amount of HBV secreted as a % of Control” value in series [1] (setting [8]) is listed as 37.0 +/-13 (n=15) %; in series [1] (setting [9]) it was 3.2 +/-5 (n=15) %. Besides, the results for the viability at 72 h in series [6] (concentration [200] (unit inferred)) and in series [6] (concentration [1000] (unit inferred)) were 94 ± 6% and 87 ± 3%, respectively. Besides, the “% Viable +/-1 S.D.” value in series [2] (concentration [200] (unit not given), listed as 1, 4320 min) is on record as 90 +/-2 (n=4) %. In series [7], the CC50 lay in the range of 100 to 200 µg/mL (≈ 456 to 912 µM).
